Data: paper PMC6896172, “Successful Targeting of the Warburg Effect in Prostate Cancer by Glucose-Conjugated 1,4-Naphthoquinones” (Cancers, 2019)

Experiments:
PNT2 cells = assay: MTT cytotoxicity assay in PNT2 cells; type: cell-based, human; settings: 48 h of treatment
Source text: (§1) For general experiments human prostate cancer cell lines PC-3 and DU145 (docetaxel-resistant, androgen-independent, AR-FL(−), AR-V7(−)), 22Rv1 and VCaP (docetaxel-sensitive, androgen-independent, AR-FL(+), AR-V7(+), and LNCaP (docetaxel sensitive, androgen-dependent, AR-FL(+), AR-V7(−) were used. PC-3, 22Rv1, LNCaP cells as well as the human prostate non-cancer cells PNT2 and RWPE-1 were purchased from ATCC (Manassas, VA, USA). VCaP were purchased from ECACC (Salisbury, UK). The human fibroblast cell line MRC-9, the human embryonic kidney cell line HEK 293T, as well as the human umbilical vascular endothelial cell line HUVEC were kindly donated by Prof. Dr. Dr. med. Sonja Loges (University Medical Center Hamburg-Eppendorf, Hamburg, Germany). Cells were cultured according to the manufacturers’ instructions and were recently authenticated by a commercial service (Multiplexion, Heidelberg, Germany). Culture conditions are described in the Supplementary Information.
(§2) MTT (3-(4,5-dimethylthiazol-2-yl)-2,5-diphenyltetrazolium bromide) cytotoxicity assay was used for the evaluation of cytotoxicity of the compounds or their combinations. Experiments were performed as previously described. In brief, 6000 cells/well were seeded in 96-well plate, incubated overnight, and treated with the drugs in 100 µL/well of 10% FBS/RPMI media containing 2 g/L of D-(+)-glucose for 48 h, unless otherwise stated. For 2 h treatment the cells were treated with the drugs for 2 h in the culture media, then the media was exchanged to fresh drug-free media (100 µL/well) containing MTT reagent and the further steps were performed as previously described.
(§3) Table S4. Cytotoxic activity of the synthesized compounds. Cytotoxicity was determined in human prostate cancer PC-3 cells versus human prostate non-cancer
(§4) PNT2 cells after 48 h of treatment, as well as its ratio. IC50 was evaluated using MTT assay. SI–selectivity index. #–the IC50s in both cell lines were >100 µM.
(§5) Anisomycin was used as a reference substance.
(§6) No Formula IC50(PC-3) IC50(PNT2) SI […]

[1] = tested on: human prostate cancer cell lines and human non-cancer cell lines; assay: MTT cytotoxicity profile in five prostate cancer versus five non-cancer cell lines; type: cell-based; settings: 48 h
Source text: as §1
MTT (3-(4,5-dimethylthiazol-2-yl)-2,5-diphenyltetrazolium bromide) cytotoxicity assay was used for the evaluation of cytotoxicity of the compounds or their combinations. Experiments were performed as previously described. […]

PC-3 cells = assay: MTT cytotoxicity assay in PC-3 cells; type: cell-based, human; settings: for IC50: 48 h of treatment; for SI [IC50(PNT2) / IC50(PC-3)]: ratio of IC50 in PNT2 cells to IC50 in PC-3 cells, 48 h
Source text: as §1, §2, §3, §4, §5, §6

22Rv1 cells [2] = assay: Intracellular ROS (CM-H2DCFDA, flow cytometry); type: cell-based, human; settings: 2 h of treatment
Method: Intracellular ROS levels were estimated using the ROS-sensitive CM-H2DCFDA reagent (Cat. No. C6827, Molecular probes, Invitrogen, Eugene, OR, USA) as described before. In brief, 22Rv1 cells were seeded in 12-well plates (0.2 × 10^6 cells/well in 1 mL/well of media) and incubated overnight. The media was changed into freshly made pre-warmed 4 µM CM-H2DCFDA/PBS (0.5 mL/well) and incubated for 30 min (37 °C, 5% CO2, in the dark). Then, the CM-H2DCFDA solution was exchanged with 1 mL/well of pre-warmed PBS containing the drugs or H2O2 (positive control) at the indicated concentrations. After 2 h of incubation the cells were trypsinized and immediately analyzed by flow cytometry technique according to the manufacture’s protocols.

LNCaP cells = assay: MTT cytotoxicity assay in LNCaP cells; type: cell-based; settings: Homo sapiens, 48 h of treatment, cancer
Method: (§7) Dr. Dr. med. Sonja Loges (University Medical Center Hamburg-Eppendorf, Hamburg, Germany). Cells were cultured according to the manufacturers’ instructions and were recently authenticated by a commercial service (Multiplexion, Heidelberg, Germany). Culture conditions are described in the Supplementary Information.
as §2

DU145 cells = assay: MTT cytotoxicity assay in DU145 cells; type: cell-based; settings: Homo sapiens, DU-145, 48 h of treatment, cancer
Method: as §7, §2

22Rv1 cells [3] = assay: Cell fractionation followed by Western blotting; type: cell-based, human; settings: 48 h
Method: (§8) Preparation of protein extracts for western blotting was performed as described previously. In brief, for western blotting, 1 × 10^6 cells/well were seeded in Petri dishes (ø 6 cm TC Dish (Sarstedt, Numbrecht, Germany) in 5 mL/dish), incubated overnight and treated with drugs in 5 mL/dish for an indicated time. Cells were harvested using a cell scraper, pelleted, and resuspended in the lysis buffer containing protease and phosphatase inhibitors. Further sample preparation and western blotting were performed as previously described with slight modifications. Relative optical density of the detected bands was quantified with Quantity One 4.6 software (Bio-Rad, Hercules, CA, USA). The primary and secondary antibodies used are listed in the Supplementary Information.
22Rv1 cells were seeded in T75 culture bottles (4 × 10^6 cells/bottle in 20 mL/bottle), treated for 48 h and harvested by scratching. The further separation of cytosolic, mitochondrial and nuclear fractions was performed using the Cell Fractionation Kit ab109719 (abcam, Cambridge, MA) as previously described. Mitochondrial and cytosolic fractions were concentrated using Amicon® Ultra-2 Centrifugal Filter device (Cat. No. UFC203024, Merck, Darmstadt, Germany). Nuclear fractions were additionally homogenized using QIAshedder kit (QIAGEN, Hilden, Germany).

MRC-9 cells = assay: MTT cytotoxicity assay in MRC-9 cells; type: cell-based; settings: Homo sapiens, MRC9, 48 h of treatment, non-cancer
Method: as §7, §2

HUVEC cells = assay: MTT cytotoxicity assay in HUVEC cells; type: cell-based; settings: Homo sapiens, 48 h of treatment, non-cancer
Method: as §7, §2

22Rv1 cells [4] = assay: MTT cytotoxicity assay in 22Rv1 cells; type: cell-based, human; settings: for IC50: Homo sapiens
Method: as §7, §2

22Rv1 cells [5] = assay: Mitochondrial membrane potential assay (JC-1, flow cytometry); type: cell-based, human; settings: 2 h of treatment
Method: The loss of mitochondrial membrane potential (Δψ) was measured by flow cytometry technique using staining with Δψ-sensitive dye JC-1 (5,5′,6,6′-tetrachloro-1,1′,3,3′-tetraethylimidacarbocyanine iodide). Cells were seeded in 12-well plates (100 × 10^3 cells/well in 1 mL/well) and incubated overnight. Then, the media was changed to PBS (1 mL/well) containing the investigational drugs. After 2 h of incubation (37 °C, 5% CO2, in the dark) the cells were trypsinized, pelleted, resuspended in 100 µL of 2 µM JC-1/PBS, incubated for 1 h (37 °C, 5% CO2, in the dark) and Δψ loss was measured by flow cytometry technique.

22Rv1 cells [6] = assay: Colony formation assay; type: cell-based, human; settings: 22Rv1 cells treated with non-cytotoxic concentrations for 48 h
Method: Colony formation assays were performed as described before. In brief, cells were treated with the drugs for 48 h and then 100 alive cells were plated into each well of 6-well plates and incubated for 10 days. Surviving colonies were fixed, stained with Giemsa solution and counted.

VCaP cells = assay: MTT cytotoxicity assay in VCaP cells; type: cell-based; settings: Homo sapiens, 48 h of treatment, cancer
Method: as §7, §2

RWPE-1 cells = assay: MTT cytotoxicity assay in RWPE-1 cells; type: cell-based; settings: Homo sapiens, 48 h of treatment, non-cancer
Method: as §7, §2

22Rv1 cells [7] = assay: Trypan blue exclusion viability assay; type: cell-based; settings: Homo sapiens, 48 h of treatment
Method: The in vitro effect of the drugs on cell viability and proliferation was evaluated using trypan blue exclusion assay as described before with minor modifications. In brief, cells (0.2 × 10^6 cells/well) were seeded in 12-well plates, incubated overnight, the media was replaced with fresh media (1 mL/well) and treated with the drugs for 48 h. Cells were harvested by trypsination and the viability was measured using trypan blue staining and Beckman Coulter Vi-CELL (Beckman Coulter, Krefeld, Germany).

22Rv1 cells [8] = assay: Western blotting of treated cells; type: cell-based, human
Method: as §8

HEK293 cells = assay: MTT cytotoxicity assay in HEK293 cells; type: cell-based; settings: Homo sapiens, 48 h of treatment, non-cancer
Method: as §7, §2

With `COc1ccc(C[C@H]2NC[C@H](O)[C@H]2OC(C)=O)cc1` [Anisomycin, anisomycin, reference compound] the IC50 (PNT2 cells) was 0.7 µM, the “selectivity to prostate cancer cell lines versus non-cancer cell lines” value [1] was “no selectivity was found” and the IC50 (PC-3 cells) was 1.49 µM. For the same compound, the “SI [IC50(PNT2) / IC50(PC-3)]” value (PC-3 cells) was 0.47.
With `CC1(C)OC2OC(C(O)COC3=CC(=O)c4c(O)cccc4C3=O)C(O)C2O1` (centres unmarked) [Compound 7] the “effect on ROS level” value (22Rv1 cells [2]) was “remarkable and significant increase of the ROS level”, the IC50 (LNCaP cells) was 2.19 µM and the IC50 (DU145 cells) was 0.84 µM. The “release of mitochondrial proteins AIF and cytochrome C” value (22Rv1 cells [3]) was “release of mitochondrial proteins”, the IC50 (MRC-9 cells) was 5.77 µM and the IC50 (HUVEC cells) was 9.04 µM. For the same compound, the “effect of N-acetyl-L-cysteine pre-treatment on cytotoxic activity” value (22Rv1 cells [4]; 22Rv1 cells, 1 mM NaC 1 h then co-treatment 48 h, FBS- and glucose-free RPMI) was “significantly suppressed the cytotoxic activity”, the IC50 (22Rv1 cells [4]; 22Rv1, 48 h of treatment, cancer, read-out: IC50 (22Rv1)) was 1.61 µM and the IC50 (22Rv1 cells [4]; 22Rv1 cells, 2 h treatment, read-out: IC50 after 2 h of treatment) was 24.2 µM. The “effect on ΔΨm” value (22Rv1 cells [5]) was “quick ΔΨm loss”, the “cancer cell colony formation” value (22Rv1 cells [6]) was “suppress cancer cell colony formation” and the IC50 (PNT2 cells; Homo sapiens, PNT2, 48 h) was 7.29 µM. It also gave an IC50 (VCaP cells) of 8.06 µM, an IC50 (RWPE-1 cells) of 3.39 µM and an IC50 (22Rv1 cells [7]) of 3.49 µM. For the same compound, the “cleavage of caspase-9” value (22Rv1 cells [8]; 2 h and 48 h treatment) was “observed already after 2 h”, the “AR-FL and AR-V7 expression” value (22Rv1 cells [8]; 48 h treatment) was “downregulated both, AR full length (AR-FL) and AR-V7” and the “Bax and Bcl-2 expression” value (22Rv1 cells [8]; 48 h treatment) was “up-regulation of Bax and down-regulation of Bcl-2”. The “LC3B-II and SQSTM1 levels (autophagy markers)” value (22Rv1 cells [8]; pre-cytotoxic and cytotoxic concentrations, 48 h) was “accumulation of both, LC3B-II and SQSTM1”, the IC50 (HEK293 cells) was 3.57 µM and the IC50 (PC-3 cells; Homo sapiens, PC-3, 48 h) was 6.1 µM. The “SI [IC50(PNT2) / IC50(PC-3)]” value (PC-3 cells) was 1.20.
